Measured values from patent US11021479B2, “Pyridoquinazoline derivatives useful as protein kinase inhibitors” (ONCOSTELLAE, S.L., priority 2017, dated 2021).

Columns and labels:
Assay type in all cases: biochemical
[1] = molecular target: T1, JAK3 (Homo sapiens, UniProt P52333); experiment: Functional assay of protein Janus kinases (Caliper mobility shift), JAK3; conditions: ATP 8 μM, incubation 30 min; read-out: JAK3 enzymatic activity (IC50) score
T1 construct: purchased Carna Biosciences 08-046
Protocol: (§1) The functional assays of protein Janus kinases were carried out in 384-well plates using a final volume of 30 μl. […] The reaction was reads in a “Caliper EzReader LabChip 3000” (Caliper, Hopkinton, Mass.) reader, based on electrophoretic mobility of the fluorescent substrate and the phosphorylated product.
(§2) The inhibition percentages were calculated by comparison between control reactions, for 100% of inhibition and reactions with only DMSO for 0% of inhibition.

[2] = molecular target: T2, TYK2 (Homo sapiens, UniProt P29597); experiment: Functional assay of protein Janus kinases (Caliper mobility shift), TYK2; conditions: ATP 20 μM, incubation 45 min; read-out: TYK2 enzymatic activity (IC50) score
T2 construct: purchased Carna Biosciences 08-147
T2 sequence (P29597 871-1187 limits assumed): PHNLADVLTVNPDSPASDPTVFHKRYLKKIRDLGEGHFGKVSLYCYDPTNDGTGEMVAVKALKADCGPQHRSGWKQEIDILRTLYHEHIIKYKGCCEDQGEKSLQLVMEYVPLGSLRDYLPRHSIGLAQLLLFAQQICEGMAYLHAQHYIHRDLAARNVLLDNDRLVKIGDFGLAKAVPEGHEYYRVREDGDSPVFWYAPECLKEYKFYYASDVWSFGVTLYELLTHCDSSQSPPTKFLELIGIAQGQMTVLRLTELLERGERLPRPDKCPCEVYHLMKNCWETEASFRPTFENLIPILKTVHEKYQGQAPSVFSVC
Protocol: as §1, §2

[3] = molecular target: T3, JAK1 (Homo sapiens, UniProt P23458); experiment: Functional assay of protein Janus kinases (Caliper mobility shift), JAK1; conditions: ATP 100 μM, incubation 150 min; read-out: JAK1 enzymatic activity (IC50) score
T3 construct: purchased Carna Biosciences 08-144
Protocol: as §1, §2

[4] = molecular target: T4, JAK2 (Homo sapiens, UniProt O60674); experiment: Functional assay of protein Janus kinases (Caliper mobility shift), JAK2; conditions: ATP 300 μM, incubation 30 min; read-out: JAK2 enzymatic activity (IC50) score
T4 construct: purchased Carna Biosciences 08-045
Protocol: as §1, §2

T4 sequence (O60674 826-1132 limits assumed): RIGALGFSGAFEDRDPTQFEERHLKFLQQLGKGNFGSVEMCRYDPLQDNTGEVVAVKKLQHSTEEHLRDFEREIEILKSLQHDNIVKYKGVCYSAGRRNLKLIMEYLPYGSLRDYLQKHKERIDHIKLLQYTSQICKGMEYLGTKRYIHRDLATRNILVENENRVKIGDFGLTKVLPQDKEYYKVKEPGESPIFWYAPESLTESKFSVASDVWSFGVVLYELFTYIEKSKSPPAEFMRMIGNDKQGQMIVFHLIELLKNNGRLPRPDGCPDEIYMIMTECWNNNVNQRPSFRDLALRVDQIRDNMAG
T1 sequence (P52333 795-1124 limits assumed): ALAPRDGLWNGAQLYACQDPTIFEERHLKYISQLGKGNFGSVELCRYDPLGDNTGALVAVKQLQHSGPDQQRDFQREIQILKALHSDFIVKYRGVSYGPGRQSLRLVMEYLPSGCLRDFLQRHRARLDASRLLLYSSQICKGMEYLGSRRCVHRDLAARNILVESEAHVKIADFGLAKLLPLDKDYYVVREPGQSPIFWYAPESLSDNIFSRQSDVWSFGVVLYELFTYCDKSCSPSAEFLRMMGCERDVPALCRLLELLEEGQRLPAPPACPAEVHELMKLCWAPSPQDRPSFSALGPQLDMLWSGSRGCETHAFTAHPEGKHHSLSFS
T3 sequence (P23458 850-1154 limits assumed): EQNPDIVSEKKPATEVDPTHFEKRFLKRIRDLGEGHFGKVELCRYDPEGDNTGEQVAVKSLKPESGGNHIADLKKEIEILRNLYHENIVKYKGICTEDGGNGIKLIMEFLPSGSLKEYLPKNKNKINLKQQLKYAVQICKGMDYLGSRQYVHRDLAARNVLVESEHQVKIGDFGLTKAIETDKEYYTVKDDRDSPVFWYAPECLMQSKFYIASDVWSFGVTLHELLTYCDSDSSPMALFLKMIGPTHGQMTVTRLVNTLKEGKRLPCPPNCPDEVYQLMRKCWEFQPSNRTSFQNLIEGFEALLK

| SMILES | IC50 [1] [nM] | IC50 [2] [nM] | IC50 [3] [nM] | IC50 [4] [nM] |
| --- | --- | --- | --- | --- |
| O=C(N[C@H]1CC[C@H](O)CC1)c1cccn2c(=O)c3cc(C4CC4)ccc3nc12 [Example 7, 2-cyclopropyl-N-((1R,4R)-4-hydroxycyclohexyl)-11-oxo-11H-pyrido[2,1-b]quinazoline-6-carboxamide] | < 100 | 100 to 1000 | > 1000 | > 1000 |
| O=C(NC1CCC(F)(F)CC1)c1cccn2c(=O)c3cc(C4CC4)ccc3nc12 [Example 15, 2-cyclopropyl-N-(4,4-difluorocyclohexyl)-11-oxo-11H-pyrido[2,1-b]quinazoline-6-carboxamide] | < 100 | 100 to 1000 | > 1000 | > 1000 |
| C[C@]1(O)CC[C@H](NC(=O)c2cccn3c(=O)c4cc(C5CC5)ccc4nc23)CC1 [Example 6, 2-cyclopropyl-N-((1R,4R)-4-hydroxy-4-methylcyclohexyl)-11-oxo-11H-pyrido[2,1-b]quinazoline-6-carboxamide] | < 100 | < 100 | > 1000 | > 1000 |
| CN1CCC(NC(=O)c2cccn3c(=O)c4cc(C5CC5)ccc4nc23)CC1 [Example 3, 2-cyclopropyl-N-(1-methylpiperidin-4-yl)-11-oxo-11H-pyrido[2,1-b]quinazoline-6-carboxamide] | 100 to 1000 | > 1000 | > 1000 | > 1000 |
| CN1CCN(c2ccc3nc4c(C(=O)NC5CCCC5)cccn4c(=O)c3c2)CC1 [Example 35, N-cyclopentyl-2-(4-methylpiperazin-1-yl)-11-oxo-11H-pyrido[2,1-b]quinazoline-6-carboxamide] | < 100 | 100 to 1000 | > 1000 | > 1000 |
| O=C(NC1CCOCC1)c1cccn2c(=O)c3cc(C4CC4)ccc3nc12 [Example 4, 2-cyclopropyl-11-oxo-N-(tetrahydro-2H-pyran-4-yl)-11H-pyrido[2,1-b]quinazoline-6-carboxamide] | 100 to 1000 | < 100 | > 1000 | > 1000 |
| CC1COCCC1NC(=O)c1cccn2c(=O)c3cc(C4CC4)ccc3nc12 (centres unmarked) [Example 5, 2-cyclopropyl-N-(3-methyltetrahydro-2H-pyran-4-yl)-11-oxo-11H-pyrido[2,1-b]quinazoline-6-carboxamide] | < 100 | < 100 | > 1000 | > 1000 |
| O=C(NC1CCCCC1)c1cccn2c(=O)c3cc(-c4ccccc4)ccc3nc12 [Example 28, N-cyclohexyl-11-oxo-2-phenyl-11H-pyrido[2,1-b]quinazoline-6-carboxamide] | 100 to 1000 | 100 to 1000 | > 1000 | > 1000 |
| O=C(NC1CCCC1)c1cccn2c(=O)c3cc(-c4ccncc4)ccc3nc12 [Example 32, N-cyclopentyl-11-oxo-2-(pyridin-4-yl)-11H-pyrido[2,1-b]quinazoline-6-carboxamide] | 100 to 1000 | < 100 | > 1000 | > 1000 |
| O=C(NC1CCOC1)c1cccn2c(=O)c3cc(C4CC4)ccc3nc12 (centres unmarked) [Example 14, 2-cyclopropyl-11-oxo-N-(tetrahydrofuran-3-yl)-11H-pyrido[2,1-b]quinazoline-6-carboxamide] | 100 to 1000 | < 100 | > 1000 | > 1000 |

The remaining lines, values ahead:

| IC50 [1] [nM] | IC50 [2] [nM] | IC50 [3] [nM] | IC50 [4] [nM] | SMILES |
| --- | --- | --- | --- | --- |
| 100 to 1000 | < 100 |  |  | CN1CCN(c2ccc3nc4c(C(=O)N[C@H]5CCCC[C@H]5O)cccn4c(=O)c3c2)CC1 [Example 37, N-((1S,2R)-2-hydroxycyclohexyl)-2-(4-methylpiperazin-1-yl)-11-oxo-11H-pyrido[2,1-b]quinazoline-6-carboxamide] |
| 100 to 1000 | 100 to 1000 | > 1000 | > 1000 | O=C(N[C@H]1CCCC[C@H]1O)c1cccn2c(=O)c3cc(Br)ccc3nc12 [Example 27, 2-bromo-N-((1S,2R)-2-hydroxycyclohexyl)-11-oxo-11H-pyrido[2,1-b]quinazoline-6-carboxamide] |
| 100 to 1000 | > 1000 | > 1000 | > 1000 | O=C(N[C@@H]1CCCC[C@H]1O)c1cccn2c(=O)c3cc(C4CC4)ccc3nc12 [Example 9, 2-cyclopropyl-N-((1R,2R)-2-hydroxycyclohexyl)-11-oxo-11H-pyrido[2,1-b]quinazoline-6-carboxamide] |
| 100 to 1000 | < 100 | > 1000 | > 1000 | O=C(NC1CCCCC1O)c1cccn2c(=O)c3cc(C4CC4)ccc3nc12 (centres unmarked) [Example 8, 2-cyclopropyl-N-(2-hydroxycyclohexyl)-11-oxo-11H-pyrido[2,1-b]quinazoline-6-carboxamide] |
| 100 to 1000 | 100 to 1000 | > 1000 | > 1000 | O=C(N[C@H]1CCCC[C@@H]1O)c1cccn2c(=O)c3cc(C4CC4)ccc3nc12 [Example 12, 2-cyclopropyl-N-((1S,2S)-2-hydroxycyclohexyl)-11-oxo-11H-pyrido[2,1-b]quinazoline-6-carboxamide] |
| 100 to 1000 | 100 to 1000 | > 1000 | > 1000 | O=C(NC1CCCCC1)c1cccn2c(=O)c3cc(Br)ccc3nc12 [Example 26, 2-bromo-N-cyclohexyl-11-oxo-11H-pyrido[2,1-b]quinazoline-6-carboxamide] |
| 100 to 1000 | < 100 | > 1000 | > 1000 | O=C(NC1CCCC1)c1cccn2c(=O)c3cc(O)ccc3nc12 [Example 18, N-cyclopentyl-2-hydroxy-11-oxo-11H-pyrido[2,1-b]quinazoline-6-carboxamide] |
| 100 to 1000 | 100 to 1000 | > 1000 | > 1000 | O=C(N[C@H]1CCCC[C@H]1O)c1cccn2c(=O)c3cc(-c4ccncc4)ccc3nc12 [Example 34, N-((1S,2R)-2-hydroxycyclohexyl)-11-oxo-2-(pyridin-4-yl)-11H-pyrido[2,1-b]quinazoline-6-carboxamide] |
| < 100 | 100 to 1000 | > 1000 | > 1000 | O=C(N[C@@H]1CCCC[C@@H]1O)c1cccn2c(=O)c3cc(C4CC4)ccc3nc12 [Example 11, 2-cyclopropyl-N-((1R,2S)-2-hydroxycyclohexyl)-11-oxo-11H-pyrido[2,1-b]quinazoline-6-carboxamide] |
| < 100 | < 100 | > 1000 | > 1000 | O=C(N[C@H]1CCCC[C@H]1O)c1cccn2c(=O)c3cc(C4CC4)ccc3nc12 [Example 10, 2-cyclopropyl-N-((1S,2R)-2-hydroxycyclohexyl)-11-oxo-11H-pyrido[2,1-b]quinazoline-6-carboxamide] |
| < 100 | < 100 | > 1000 | > 1000 | O=C(NC1CCCC1)c1cccn2c(=O)c3cc(Br)ccc3nc12 [Example 25, 2-bromo-N-cyclopentyl-11-oxo-11H-pyrido[2,1-b]quinazoline-6-carboxamide] |
| 100 to 1000 | 100 to 1000 | > 1000 | > 1000 | O=C(NC1CCCCC1)c1cccn2c(=O)c3cc(F)ccc3nc12 [Example 24, N-cyclohexyl-2-fluoro-11-oxo-11H-pyrido[2,1-b]quinazoline-6-carboxamide] |
